Tests used:
Assay type in all cases: cell-based
Settings in all cases: 24 h, HEK293T GFP reporter
IKZF1 = target: T1, IKZF1 (Homo sapiens, UniProt Q13422+Q96SW2); test: Flow cytometry for measuring degradation, HEK293T GFP-POI reporter cells (IKZF1)
T1 construct: expressed in transfected cells; host or cells: HEK293T (lentiviral transduction, puromycin selection, FACS sorting)

GSPT1 = GSPT1 (Homo sapiens, UniProt P15170+Q96SW2); test: Flow cytometry for measuring degradation, HEK293T GFP-POI reporter cells (GSPT1); parameters: expressed in transfected cells; host or cells: HEK293T
CK1α = target: T2, CK1α (Homo sapiens, UniProt P48729+Q96SW2); test: Flow cytometry for measuring degradation, HEK293T GFP-POI reporter cells (CK1α)
T2 construct: expressed in transfected cells; host or cells: HEK293T (lentiviral transduction, puromycin selection, FACS sorting)

IKZF2 = target: T3, IKZF2 (Homo sapiens, UniProt Q96SW2+Q9UKS7); test: Flow cytometry for measuring degradation, HEK293T GFP-POI reporter cells (IKZF2)
T3 construct: expressed in transfected cells; host or cells: HEK293T (lentiviral transduction, puromycin selection, FACS sorting)
T3 sequence (Q9UKS7 whole entry): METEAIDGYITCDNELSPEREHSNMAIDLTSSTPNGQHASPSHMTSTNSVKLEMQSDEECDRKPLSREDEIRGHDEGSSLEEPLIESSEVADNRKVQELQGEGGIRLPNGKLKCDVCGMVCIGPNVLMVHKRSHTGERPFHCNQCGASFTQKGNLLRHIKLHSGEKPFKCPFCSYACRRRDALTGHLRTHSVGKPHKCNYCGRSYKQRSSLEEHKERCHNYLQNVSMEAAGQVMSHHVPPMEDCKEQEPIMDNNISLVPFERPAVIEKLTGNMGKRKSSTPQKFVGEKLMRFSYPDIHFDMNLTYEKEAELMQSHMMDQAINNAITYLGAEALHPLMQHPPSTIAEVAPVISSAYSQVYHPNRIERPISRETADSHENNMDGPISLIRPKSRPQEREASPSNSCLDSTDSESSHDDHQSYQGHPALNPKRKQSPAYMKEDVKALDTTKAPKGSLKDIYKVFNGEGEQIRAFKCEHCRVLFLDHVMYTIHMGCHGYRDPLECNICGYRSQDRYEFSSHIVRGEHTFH
T3 sequence (Q96SW2 whole entry): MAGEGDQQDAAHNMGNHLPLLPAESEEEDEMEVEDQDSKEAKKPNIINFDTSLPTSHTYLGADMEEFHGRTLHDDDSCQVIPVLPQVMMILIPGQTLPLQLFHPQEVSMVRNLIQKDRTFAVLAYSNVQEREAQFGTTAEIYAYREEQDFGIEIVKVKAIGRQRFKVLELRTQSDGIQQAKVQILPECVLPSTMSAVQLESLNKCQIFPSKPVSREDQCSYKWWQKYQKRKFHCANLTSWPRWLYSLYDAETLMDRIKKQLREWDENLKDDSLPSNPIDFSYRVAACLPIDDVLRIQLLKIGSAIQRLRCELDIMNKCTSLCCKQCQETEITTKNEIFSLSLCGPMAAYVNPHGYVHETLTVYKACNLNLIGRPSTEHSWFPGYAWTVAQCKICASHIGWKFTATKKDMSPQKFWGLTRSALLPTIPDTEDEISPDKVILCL
T3 sequence (Q16531 whole entry partner): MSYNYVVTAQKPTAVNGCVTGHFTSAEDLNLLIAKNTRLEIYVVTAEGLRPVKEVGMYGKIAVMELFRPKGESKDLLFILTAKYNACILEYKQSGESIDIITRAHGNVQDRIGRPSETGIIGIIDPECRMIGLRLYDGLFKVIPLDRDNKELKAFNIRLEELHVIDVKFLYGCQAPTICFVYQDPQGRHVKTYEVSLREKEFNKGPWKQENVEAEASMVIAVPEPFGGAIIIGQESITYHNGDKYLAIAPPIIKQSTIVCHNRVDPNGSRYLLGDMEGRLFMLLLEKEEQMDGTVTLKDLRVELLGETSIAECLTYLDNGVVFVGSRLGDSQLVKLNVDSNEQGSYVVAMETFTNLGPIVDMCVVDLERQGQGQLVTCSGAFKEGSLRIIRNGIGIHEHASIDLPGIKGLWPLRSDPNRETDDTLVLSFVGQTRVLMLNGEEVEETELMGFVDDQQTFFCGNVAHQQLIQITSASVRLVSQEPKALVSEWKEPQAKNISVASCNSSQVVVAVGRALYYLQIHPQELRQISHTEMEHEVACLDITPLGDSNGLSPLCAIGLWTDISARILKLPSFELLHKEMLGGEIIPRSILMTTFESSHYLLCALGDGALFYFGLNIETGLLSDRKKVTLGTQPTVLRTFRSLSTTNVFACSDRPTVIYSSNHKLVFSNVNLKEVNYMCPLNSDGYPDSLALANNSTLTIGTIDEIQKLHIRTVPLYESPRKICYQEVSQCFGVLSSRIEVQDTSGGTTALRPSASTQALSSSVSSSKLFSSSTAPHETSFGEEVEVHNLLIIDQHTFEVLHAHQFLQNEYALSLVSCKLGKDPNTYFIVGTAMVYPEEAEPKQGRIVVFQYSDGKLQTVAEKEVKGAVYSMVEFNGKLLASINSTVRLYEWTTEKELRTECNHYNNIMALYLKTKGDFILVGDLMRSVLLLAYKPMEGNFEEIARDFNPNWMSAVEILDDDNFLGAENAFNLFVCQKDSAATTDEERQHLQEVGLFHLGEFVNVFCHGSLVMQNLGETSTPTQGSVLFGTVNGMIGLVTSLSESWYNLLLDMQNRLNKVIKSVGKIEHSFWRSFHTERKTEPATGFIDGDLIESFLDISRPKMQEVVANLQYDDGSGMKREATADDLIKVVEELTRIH

T2 sequence (P48729 whole entry): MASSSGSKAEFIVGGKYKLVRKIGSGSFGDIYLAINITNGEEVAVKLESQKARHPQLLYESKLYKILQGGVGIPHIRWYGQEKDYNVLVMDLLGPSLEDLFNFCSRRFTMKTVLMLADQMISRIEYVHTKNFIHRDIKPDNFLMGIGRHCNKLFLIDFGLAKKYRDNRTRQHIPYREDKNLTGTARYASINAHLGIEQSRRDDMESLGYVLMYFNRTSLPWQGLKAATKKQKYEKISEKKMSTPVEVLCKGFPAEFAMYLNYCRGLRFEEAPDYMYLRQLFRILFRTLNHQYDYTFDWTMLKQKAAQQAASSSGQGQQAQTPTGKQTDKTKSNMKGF
T2 sequence (Q96SW2 whole entry): as the sequence (Q96SW2 whole entry) above
T2 sequence (Q16531 whole entry partner): as the sequence (Q16531 whole entry partner) above
Sequence of GSPT1 (P15170 whole entry): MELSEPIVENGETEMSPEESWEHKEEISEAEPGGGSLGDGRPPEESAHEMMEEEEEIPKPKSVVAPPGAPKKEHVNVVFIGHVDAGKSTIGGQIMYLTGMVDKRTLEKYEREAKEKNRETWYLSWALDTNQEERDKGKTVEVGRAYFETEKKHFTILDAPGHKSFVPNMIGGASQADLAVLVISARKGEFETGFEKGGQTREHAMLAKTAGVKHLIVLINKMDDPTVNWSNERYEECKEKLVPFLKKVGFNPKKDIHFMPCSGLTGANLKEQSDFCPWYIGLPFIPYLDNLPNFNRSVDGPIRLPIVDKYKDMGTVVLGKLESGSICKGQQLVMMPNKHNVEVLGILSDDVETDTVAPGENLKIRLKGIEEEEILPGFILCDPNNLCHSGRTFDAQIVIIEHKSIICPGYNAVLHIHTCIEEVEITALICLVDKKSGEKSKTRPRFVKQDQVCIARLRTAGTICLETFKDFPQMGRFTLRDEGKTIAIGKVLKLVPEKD
Sequence of GSPT1 (Q96SW2 whole entry): as the sequence (Q96SW2 whole entry) above
Sequence of GSPT1 (Q16531 whole entry partner): as the sequence (Q16531 whole entry partner) above
T1 sequence (Q13422 whole entry): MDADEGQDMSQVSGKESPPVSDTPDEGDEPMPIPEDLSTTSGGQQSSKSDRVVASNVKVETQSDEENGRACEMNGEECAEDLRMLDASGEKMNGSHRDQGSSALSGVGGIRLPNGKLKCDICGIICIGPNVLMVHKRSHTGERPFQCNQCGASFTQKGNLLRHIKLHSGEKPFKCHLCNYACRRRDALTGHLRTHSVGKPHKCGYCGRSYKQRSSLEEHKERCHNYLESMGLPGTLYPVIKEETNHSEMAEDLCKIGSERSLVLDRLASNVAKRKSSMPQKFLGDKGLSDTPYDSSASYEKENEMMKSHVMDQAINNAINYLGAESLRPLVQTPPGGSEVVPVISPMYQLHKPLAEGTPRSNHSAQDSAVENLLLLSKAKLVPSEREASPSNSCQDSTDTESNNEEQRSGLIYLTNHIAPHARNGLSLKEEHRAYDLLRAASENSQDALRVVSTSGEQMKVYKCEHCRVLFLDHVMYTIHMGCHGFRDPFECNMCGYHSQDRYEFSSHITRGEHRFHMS
T1 sequence (Q96SW2 whole entry): as the sequence (Q96SW2 whole entry) above
T1 sequence (Q16531 whole entry partner): as the sequence (Q16531 whole entry partner) above

Row | SMILES | IKZF1% degradation at 100 nM (IKZF1) | IKZF1% degradation at 1 μM (IKZF1) | GSPT1% degradation at 100 nM (GSPT1) | GSPT1% degradation at 1 μM (GSPT1) | CK1α % degradation at 100 nM (CK1α) | CK1α % degradation at 1 μM (CK1α) | IKZF2% degradation at 100 nM (IKZF2) | IKZF2% degradation at 1 μM (IKZF2)
1 | O=C1CCC(N2Cc3cc(NC(=O)C4=COc5ccccc5O4)ccc3C2=O)C(=O)N1 (stereo not shown) [DEG-63, N-(2-(2,6-dioxopiperidin-3-yl)-1-oxoisoindolin-5-yl)benzo[b][1,4]dioxine-2-carboxamide] | 13.4 ± 0.7% | 35.2 ± 0.6% | −0.1 ± 1.2% | 1.2 ± 0.3% | 46.4 ± 1.4% | 60.3 ± 1.2% | 70.8 ± 0.6% | 90.7 ± 0.2%
2 | CC(=O)Nc1ccc2c(c1)CN(C1CCC(=O)NC1=O)C2=O (stereo not shown) [DEG-66, N-(2-(2,6-dioxopiperidin-3-yl)-1-oxoisoindolin-5-yl)acetamide] | 4.4 ± 0.8% | 10.9 ± 0.9% | 9.9 ± 0.8% | 8.6 ± 0.8% | 12 ± 1.3% | 25.4 ± 0.8% | 16.6 ± 0.1% | 48.5 ± 0.2%
3 | COc1ccc2cccc(CC(=O)Nc3ccc4c(c3)CN(C3CCC(=O)NC3=O)C4=O)c2c1 (stereo not shown) [DEG-68, N-(2-(2,6-dioxopiperidin-3-yl)-1-oxoisoindolin-5-yl)-2-(7-methoxynaphthalen-1-yl)acetamide] | 96.9 ± 0.1% | 97.6 ± 0.1% | 16.6 ± 1.3% | 21.3 ± 1.8% | 59.7 ± 1.2% | 64.4 ± 1.6% | 92.2 ± 0.1% | 94.4 ± 0.1%
4 | COc1ccc(Oc2cccc(C(=O)Nc3ccc4c(c3)CN(C3CCC(=O)NC3=O)C4=O)c2)cc1 (stereo not shown) [DEG-69, N-(2-(2,6-dioxopiperidin-3-yl)-1-oxoisoindolin-5-yl)-3-(4-methoxyphenoxy)benzamide] | 98.6 ± 0.1% | 98.6 ± 0.1% | 12.5 ± 1.2% | 16.8 ± 1.9% | 64.8 ± 0.3% | 65.5 ± 2.3% | 89.5 ± 0.1% | 93.2 ± 0.7%
5 | COc1ccc(Oc2ccc(C(=O)Nc3ccc4c(c3)CN(C3CCC(=O)NC3=O)C4=O)cc2)cc1 (stereo not shown) [DEG-70, N-(2-(2,6-dioxopiperidin-3-yl)-1-oxoisoindolin-5-yl)-4-(4-methoxyphenoxy)benzamide] | 6.5 ± 1.4% | 16.2 ± 0.6% | 4.3 ± 1.1% | 4.8 ± 0.4% | 44.9 ± 3.4% | 55.8 ± 5.6% | 53.6 ± 0.6% | 84.5 ± 0.3%
6 | O=C1CCC(N2Cc3cc(NC(=O)Cc4ccc5ccccc5c4)ccc3C2=O)C(=O)N1 (stereo not shown) [DEG-71, N-(2-(2,6-dioxopiperidin-3-yl)-1-oxoisoindolin-5-yl)-2-(naphthalen-2-yl)acetamide] | 98.5 ± 0.1% | 98.4 ± 0.1% | 63.1 ± 0.4% | 69.4 ± 0.6% | −190.2 ± 2.8% | −153 ± 2.3% | 93.8 ± 0.5% | 88.5 ± 3%
7 | O=C1CCC(N2Cc3cc(NC(=O)c4ccc5ncsc5c4)ccc3C2=O)C(=O)N1 (stereo not shown) [DEG-72, N-(2-(2,6-dioxopiperidin-3-yl)-1-oxoisoindolin-5-yl)benzo[d]thiazole-6-carboxamide] | 2.7 ± 1.2% | 6.5 ± 1.2% | −1.7 ± 3.4% | −0.9 ± 2.6% | 33.2 ± 3.2% | 54.5 ± 3.8% | 41.8 ± 2% | 82.5 ± 0.9%

Other lines, results leading:

Row | IKZF1% degradation at 100 nM (IKZF1) | IKZF1% degradation at 1 μM (IKZF1) | GSPT1% degradation at 100 nM (GSPT1) | GSPT1% degradation at 1 μM (GSPT1) | CK1α % degradation at 100 nM (CK1α) | CK1α % degradation at 1 μM (CK1α) | IKZF2% degradation at 100 nM (IKZF2) | IKZF2% degradation at 1 μM (IKZF2) | SMILES
8 | 11.7 ± 0.3% | 26.3 ± 0.6% | 11.1 ± 1.4% | 19.8 ± 0.8% | 56.6 ± 1.2% | 60.4 ± 0.6% | 67.4 ± 1.2% | 87.8 ± 0.3% | O=C1CCC(N2Cc3cc(NC(=O)c4ccc(Sc5ccccc5)cc4)ccc3C2=O)C(=O)N1 (stereo not shown) [DEG-73, N-(2-(2,6-dioxopiperidin-3-yl)-1-oxoisoindolin-5-yl)-4-(phenylthio)benzamide]
9 | 4.3 ± 0.5% | 32.5 ± 0.4% | 9 ± 2.6% | 37.5 ± 2.1% | 59.5 ± 1.1% | 64.8 ± 0.6% | 57.1 ± 1.1% | 96 ± 0% | COc1ccc2c(c1)OCC(C(=O)Nc1ccc3c(c1)CN(C1CCC(=O)NC1=O)C3=O)=C2 (stereo not shown) [DEG-74, N-(2-(2,6-dioxopiperidin-3-yl)-1-oxoisoindolin-5-yl)-7-methoxy-2H-chromene-3-carboxamide]
10 | 2.4 ± 1.1% | 7 ± 0.4% | 0.4 ± 1.4% | 12.6 ± 1.2% | 48.1 ± 2.2% | 64 ± 1.5% | 54.6 ± 1.1% | 83.3 ± 0.3% | COc1cc(Oc2ccccc2)ccc1C(=O)Nc1ccc2c(c1)CN(C1CCC(=O)NC1=O)C2=O (stereo not shown) [DEG-75, N-(2-(2,6-dioxopiperidin-3-yl)-1-oxoisoindolin-5-yl)-2-methoxy-4-phenoxybenzamide]
11 | 8.7 ± 1.8% | 17.2 ± 1.2% | 12.1 ± 0.5% | 21.3 ± 1.7% | 64.1 ± 0.8% | 69.9 ± 0.5% | 81.8 ± 0.4% | 92.8 ± 0% | COc1cc(C(=O)Nc2ccc3c(c2)CN(C2CCC(=O)NC2=O)C3=O)ccc1Oc1ccccc1 (stereo not shown) [DEG-76, N-(2-(2,6-dioxopiperidin-3-yl)-1-oxoisoindolin-5-yl)-3-methoxy-4-phenoxybenzamide]
12 | 15.7 ± 1.1% | 33.9 ± 0.9% | 9.2 ± 0.8% | 14.4 ± 0.5% | 65.5 ± 1.3% | 69.5 ± 1.4% | 75 ± 0.8% | 90.3 ± 0% | COc1ccc2c(c1)C=C(C(=O)Nc1ccc3c(c1)CN(C1CCC(=O)NC1=O)C3=O)CO2 (stereo not shown) [DEG-78, N-(2-(2,6-dioxopiperidin-3-yl)-1-oxoisoindolin-5-yl)-6-methoxy-2H-chromene-3-carboxamide]
13 | 39.4 ± 0.8% | 70.3 ± 0.2% | 24 ± 1% | 44.3 ± 1.3% | 59.4 ± 1% | 38.1 ± 3.4% | 74.6 ± 0.3% | 93 ± 0.1% | COc1cccc2c1C=C(C(=O)Nc1ccc3c(c1)CN(C1CCC(=O)NC1=O)C3=O)CO2 (stereo not shown) [DEG-79, N-(2-(2,6-dioxopiperidin-3-yl)-1-oxoisoindolin-5-yl)-5-methoxy-2H-chromene-3-carboxamide]
14 | 8.6 ± 0.1% | 24 ± 0.1% | 14.3 ± 2.1% | 28 ± 0.8% | 63.5 ± 1.5% | 66.9 ± 1.1% | 72.6 ± 0.9% | 91.5 ± 0.2% | Cc1ccc2c(c1)OCC(C(=O)Nc1ccc3c(c1)CN(C1CCC(=O)NC1=O)C3=O)=C2 (stereo not shown) [DEG-80, N-(2-(2,6-dioxopiperidin-3-yl)-1-oxoisoindolin-5-yl)-7-methyl-2H-chromene-3-carboxamide]
15 | 8 ± 0.5% | 17.4 ± 3.3% | 2.8 ± 0.8% | 11.9 ± 1.9% | 66.3 ± 2% | 72 ± 0.3% | 75.1 ± 0.5% | 91.8 ± 0.1% | O=C1CCC(N2Cc3cc(NC(=O)C4=Cc5ccc(C(F)(F)F)cc5OC4)ccc3C2=O)C(=O)N1 (stereo not shown) [DEG-81, N-(2-(2,6-dioxopiperidin-3-yl)-1-oxoisoindolin-5-yl)-7-(trifluoromethyl)-2H-chromene-3-carboxamide]
16 | 10.6 ± 1.2% | 19.9 ± 0.3% | 6.1 ± 0.3% | 12.3 ± 0.9% | 58 ± 2.2% | 62.7 ± 1.4% | 85.4 ± 0% | 93.3 ± 0.1% | O=C1CCC(N2Cc3cc(NC(=O)C4=Cc5ccc(OC(F)(F)F)cc5OC4)ccc3C2=O)C(=O)N1 (stereo not shown) [DEG-82, N-(2-(2,6-dioxopiperidin-3-yl)-1-oxoisoindolin-5-yl)-7-(trifluoromethoxy)-2H-chromene-3-carboxamide]
17 | 12.9 ± 1% | 47.5 ± 0.2% | 21.8 ± 2.3% | 49 ± 0.8% | 61.9 ± 0.4% | 30.2 ± 2.3% | 80.4 ± 0.5% | 94.4 ± 0.2% | O=C1CCC(N2Cc3cc(NC(=O)C4=Cc5ccc(Br)cc5OC4)ccc3C2=O)C(=O)N1 (stereo not shown) [DEG-83, 7-bromo-N-(2-(2,6-dioxopiperidin-3-yl)-1-oxoisoindolin-5-yl)-2H-chromene-3-carboxamide]
